# Like-named read-outs stand apart in the source and are kept apart here.
# Experiments:
# Format in all cases: cell-based
# [1] = biological target: T1, human (h) PAR2 (Homo sapiens, UniProt P55085); assay: IP1 accumulation assay in KNRK-hPAR2 cells; conditions: 100 nM 2F; 30 μM of antagonist; read-out: KNRK-PAR2 100 nM 2F: ND (inhibition of 2F at 30 μM of antagonist)
# T1 construct: expressed in transfected cells; host or cells: KNRK cells (KNRK-hPAR2)
# T1 sequence (P55085 26-397): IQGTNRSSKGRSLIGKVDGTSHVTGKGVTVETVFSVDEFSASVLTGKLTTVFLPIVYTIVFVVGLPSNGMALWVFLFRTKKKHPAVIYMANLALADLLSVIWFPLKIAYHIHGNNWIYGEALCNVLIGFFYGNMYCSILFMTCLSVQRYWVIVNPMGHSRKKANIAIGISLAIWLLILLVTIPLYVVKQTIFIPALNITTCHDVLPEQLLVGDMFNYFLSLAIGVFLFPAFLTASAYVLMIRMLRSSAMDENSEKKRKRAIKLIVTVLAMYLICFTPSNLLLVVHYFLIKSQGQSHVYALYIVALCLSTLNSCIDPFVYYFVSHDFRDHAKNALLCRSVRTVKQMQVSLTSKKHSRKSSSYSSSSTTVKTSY
# Description: (§1) KNRK-hPAR2, KNRK or HT-29 cells were seeded at a density of 50×10^3 cells/well in a clear poly-d-lysine coated 96 well tissue culture plate. Following 24 h incubation at 37° C. and 5% CO2, media was removed and replaced with 80 μl IP1 stimulation buffer (10 mM HEPES, 1 mM CaCl2, 0.5 mM MgCl2, 4.2 mM KCl, 146 mM NaCl, 5.5 mM glucose, 50 mM LiCl). Following stimulation buffer addition, the wells received 10 μl of 10× antagonists or DMSO vehicle. All plates were further incubated at 37° C., 5% CO2 for 30 min. 10 μl of 2F or ATP was added to the plates and further incubated for 40 min. Following incubation, stimulation buffer was quickly removed by aspiration and replaced with 25 μl lysis buffer (IP-One HTRF® assay kit, Cisbio). Following incubation of the lysates at 37° C., 5% CO2 for 10′, 10 μl lysate was transferred to a 384-well OptiPlate (PerkinElmer) and detected using the IP-One HTRF® assay kit (Cisbio).
# (§2) Compounds of the invention (added at 10×concentrations in a 10 μL volume) were incubated for 30 min prior to the addition of 10 μM ATP or 100 nM or 300 nM PAR2 agonist (2F; EC80, added at 10×concentrations in a 10 μL volume) and then further incubated for 40 min. After lysis, the inositol phosphate 1 was quantified with IP-One HTRF® assay kit, Cisbio. The data was analysed with Prism, GraphPad to calculate the IC50 values, shown below in Table 1.
# (§3) Inhibition of PAR2 signaling with known PAR2 inhibitor I-343 (FIG. 14A) was investigated in HT-29 cells and HEK293 cells, which express endogenous PAR2, and in KNRK cells expressing human (h) PAR2. Accumulation of inositol phosphate-1 (IP1) was measured in response to the PAR2-selective agonist 2-Furoyl-LIGRLO-NH2 (2F), an analogue of the trypsin-exposed tethered ligand, or trypsin.
# (§4) KNRK-hPAR2, KNRK, HEK293, or HT-29 cells were seeded at a density of 50×10^3 cells/well onto clear 96-well plates (PerkinElmer). After 24 h of culture, medium was replaced with IP1 stimulation buffer (10 mM HEPES, 1 mM CaCl2, 0.5 mM MgCl2, 4.2 mM KCl, 146 mM NaCl, 5.5 mM glucose, 50 mM LiCl; 37° C., 5% CO2.). Cells were pre-incubated with the antagonist or vehicle for 30 min prior to the addition of agonist. Cells were then further incubated for 40 min. Stimulation buffer was […]
# [2] = biological target: T2, PAR2 (Homo sapiens, UniProt P55085); assay: IP1 accumulation assay in HT-29 cells (endogenous PAR2); conditions: 2F (300 nM)-induced IP1, HT-29 cells
# T2 construct: HT-29 cells and HEK293 cells, which express endogenous PAR2; endogenous in cells; host or cells: HT-29
# T2 sequence (P55085 26-397): T1 sequence (P55085 26-397)
# Description: as §1, §2, §3, §4
# [3] = tested on: mouse DRG neurons; assay: Patch clamp rheobase of DRG neurons: protease-induced hyperexcitability of nociceptors
# [4] = tested on: mouse DRG neurons; assay: Patch clamp rheobase of DRG neurons: IBS-D biopsy supernatant-induced hyperexcitability
# Description: An investigation as whether proteases from mucosal biopsies of IBS patients cause a persistent hyperexcitability of nociceptors was conducted by a mechanism that entails endosomal signaling of PAR2. Biopsies of colonic mucosa from patients with diarrhea-predominant IBS (IBS-D) or healthy control (HC) subjects were placed in culture medium (24 h, 37° C.). Mouse DRG neurons were then exposed to biopsy supernatants (30 min, 37° C.) and washed. Rheobase was measured 30 min after washing to assess persistent hyperexcitability. Supernatants of biopsies from IBS-D patients caused a persistent decrease in rheobase, consistent with hyperexcitability, when compared to supernatants from HC subjects (rheobase at 30 min: HC, 78.33±4.41 pA, 12 neurons, supernatant from 4 HC; IBS-D, 54.55±4.74 pA, 11 neurons, supernatant from 4 IBS-D; P<0.05; ANOVA, Tukey's multiple comparisons test) (FIG. 6A, B). I-343 (10 μM), Dy4 (dynamin inhibitor, 30 μM) and PD98059 (MEK1 inhibitor, 50 μM) abolished IBS-D-induced hyperexcitability of nociceptors (FIG. 6A-D).
# The Queen's University Human Ethics Committee approved human studies. All subjects gave informed consent. Endoscopic biopsies were obtained from the descending colon of 13 adult IBS-D patients (12 female) diagnosed using ROME III criteria for diarrhea predominant IBS and of 12 health controls. All IBS patients had symptoms greater than 1 year and most were greater than 5 years. Celiac disease was excluded by blood test and patients over 40 years with daily diarrhea were biopsied at the time of colonoscopy to exclude microscopic colitis. […] Biopsies (8 samples per patient) were incubated in 250 μl of RPMI medium containing 10% fetal calf serum, penicillin/streptomycin and gentamicin/amphotericin B (95% O2/5% […], 24 h, 37° C.). Supernatants were stored at −80° C. Supernatants from 4-6 patients were pooled and studied in individual experiments.
# DRG innervating the colon (T9-T13) were collected from C57BL/6 mice. Ganglia were digested by incubation in collagenase IV (1 mg/ml, Worthington) and dispase (4 mg/ml, Roche) (10 min, 37° C.). DRG were triturated with a fire-polished Pasteur pipette, and further digested (5 min, 37° C.). Neurons were washed, plated onto laminin- (0.017 mg/ml) and poly-D-lysine- (2 mg/ml) coated glass coverslips, and were maintained in F12 medium containing 10% fetal calf serum, penicillin and streptomycin (95% air, 5% CO2, 16 h, 37° C.) until retrieval for electrophysiological studies.
# Small-diameter (<30 pF capacitance) neurons were studied because they display characteristics of nociceptors (Valdez-Morales E. E. et al., Am J Gastroenterol 2013, 108(10): 1634-1643). Changes in excitability were quantified by measuring rheobase. Whole-cell perforated patch-clamp recordings were made using Amphotericin B (240 μg/ml, Sigma Aldrich) in current clamp mode at room temperature. The recording chamber was perfused with external solution at 2 ml/min. Recordings were made using Multiclamp 700B or Axopatch 200B amplifiers, digitized by Digidata 1440A or 1322A, and processed using pClamp 10.1 software (Molecular Devices). Solutions had the composition (mM): pipette—K-gluconate 110, KC130, HEPES 10, MgCl2 1, CaCl2 2; pH 7.25 with 1 M KOH; external—NaCl 140, KCl 5 HEPES 10, glucose 10, MgCl2 1, CaCl2 2; pH to 7.3-7.4 with 3 M NaOH. […] Neurons were also preincubated with trypsin (50 nM, 10 min), NE (390 nM, 30 min), CS (500 nM, 60 min), or vehicle (37° C.), and washed. Rheobase was measured at T 0 or T 30 min after washing. To investigate mechanisms of protease-evoked effects, neurons were incubated with I-343 (100 nM, 300 nM, 10 μM, 30 min preincubation), SCH79797 (1 μM, 10 min), Dy4 (30 μM, 30 min), PS2 (15 μM, 30 min), PD98059 (50 μM, 30 min), GF109203X (10 μM, 30 min), or vehicle (preincubation and inclusion throughout). In experiments using the tripartite antagonist, neurons were preincubated with Compound 10 (30 μM, 60 min, 37° C.) or vehicle and washed. […]
smiles,measurement,setting,value
"CC(C)CCCC(C)[C@H]1CCC2C3CCC4C[C@@H](OC(=O)CC(NC(=O)CCOCCOCCOCCOCCOCCOCCOCCOCCOCCOCCOCCOCCNC(=O)Cn5cc(C(=O)N6CCN(C(=O)c7cn8nc(-c9ccc(F)cc9)cc(C(C)(C)C)c8n7)C(C)(C)C6)nn5)C(N)=O)CC[C@]4(C)C3CC[C@@]21C (stereo in doubt) [Compound 10, (3S,10S,13R,17R)-10,13-dimethyl-17-((R)-6-methylheptan-2-yl)hexadecahydro-1H-cyclopenta[a]phenanthren-3-yl (44S)-1-(4-(4-(8-(tert-butyl)-6-(4-fluorophenyl)imidazo[1,2-b]pyridazine-2-carbonyl)-3,3-dimethylpiperazine-1-carbonyl)-1H-1,2,3-triazol-1-yl)-44-carbamoyl-2,42-dioxo-6,9,12,15,18,21,24,27,30,33,36,39-dodecaoxa-3,43-diazahexatetracontan-46-oate]",inhibition at 30 µM,[1],< 50%
same,IC50,[2]; read-out: HT-29 300 nM 2F (IC50),670 nM
same,IC50,[2]; read-out: HT-29 300 nM 2F pIC50 ± SEM (converted),661 nM
same,baseline rheobase,[3],no effect
same,initial excitability at 0 min after trypsin,[3],did not affect
same,persistent response at 30 min after trypsin,[3],prevented
same,excitability of neurons treated with HC supernatant,[4],did not affect
same,"rheobase at 30 min, IBS-D supernatant",[4],64.7±3.84 pA
same,persistent actions of IBS-D supernatant on nociceptor excitability,"[4]; 30 μM, 60 min preincubation, washed",completely prevented

# — US20200383985A1, “Inhibitors of Protease Activated Receptor-2” (Endosome Therapeutics, Inc., priority 2017, published 2020)
